Tested on: B cells in human blood
Experiment: Inhibition of B cell activation in whole blood measured by CD69 expression
Assay type: cell-based
Settings: CD69-positive, CD20-positive cells after anti-IgM stimulation, human whole blood, 20 hours, read-out: Human Whole Blood
Experimental: Inhibition of B Cell Activation in Whole Blood Measured by CD69 Expression
A procedure to test the ability of Btk inhibitors to suppress B cell receptor-mediated activation of B cells in human blood is as follows:
Human whole blood (HWB) is obtained from healthy volunteers, with the following restrictions: 24 hr drug-free, non-smokers. Blood is collected by venipuncture into Vacutainer tubes anticoagulated with sodium heparin. Test compounds are diluted to […] the desired starting drug concentration in PBS (20×), followed by three-fold serial dilutions in 10% DMSO in PBS to produce a nine point dose-response curve. 5.5 μl of each compound dilution is added in duplicate to a 2 ml96-well V bottom plate (Analytical Sales and Services, #59623-23); 5.5 μl of 10% DMSO in PBS is added to control and no-stimulus wells. HWB (100 μl) is added to each well, and after mixing the plates are incubated at 37 C, 5% CO2, 100% humidity for 30 minutes. Goat F(ab′)2 anti-human IgM (Southern Biotech, #2022-14) (10 μl of a […] solution, 50 μg/ml final concentration) is added to each well (except the no-stimulus wells) with mixing and the plates are incubated for an additional 20 hours.
At the end of the 20 hour incubation, samples are incubated with florescent-probe-labeled anti-bodies (15 μl PE Mouse anti-Human CD20, BD Pharmingen, #555623, and/or 20 ul APC Mouse anti-Human CD69, BD Pharmingen #555533) for 30 minutes, at 37 C, 5% CO2, 100% humidity. Included are induced control, unstained and single stains for compensation adjustments and initial voltage settings. Samples are then lysed with 1 ml of 1× Pharmingen Lyse Buffer (BD Pharmingen #555899), and plates are centrifuged at 1800 rpm for 5 minutes. Supernatants are removed via suction and the remaining pellets are lysed again with another 1 ml of 1× Pharmingen Lyse Buffer, and plates are spun down as before. Supernatants are aspirated and remaining pellets are washed in FACs buffer (PBS+1% FBS). After a final spin, the supernantants are removed and pellets are resuspended in 180 μl of FACs buffer. Samples are transferred to a 96 well plate suitable to be run on the HTS 96 well system on the BD LSR II flow cytometer.
Using appropriate excitation and emission wavelengths for the fluorophores used, data are acquired and percent positive cell values are obtained using Cell Quest Software. Results are initially analyzed by FACS analysis software (Flow Jo). […] The IC50 values are calculated using XLfit software version 3, equation 201.
Representative compound data for this assay are listed below in Table II.

Row | Compound | IC50 [µM]
1 | CN1CCC(c2ccc(Nc3cc(-c4cccc(-n5ncc6cc(C(C)(C)C)cc(F)c6c5=O)c4CO)nn(C)c3=O)nc2)C1 (centres unmarked) [I-28, 6-tert-Butyl-8-fluoro-2-(2-hydroxymethyl-3-{1-methyl-5-[5-(1-methyl-pyrrolidin-3-yl)-pyridin-2-ylamino]-6-oxo-1,6-dihydro-pyridazin-3-yl}-phenyl)-2H-phthalazin-1-one] | 0.006
2 | CC(C)N1CCC(c2ccc(Nc3cc(-c4cccc(-n5ncc6cc(C(C)(C)C)cc(F)c6c5=O)c4CO)nn(C)c3=O)nc2)CC1 [I-29, 6-tert-Butyl-8-fluoro-2-{2-hydroxymethyl-3-[5-(1′-isopropyl-1′,2′,3′,4′,5′,6′-hexahydro-[3,4′]bipyridinyl-6-ylamino)-1-methyl-6-oxo-1,6-dihydro-pyridazin-3-yl]-phenyl}-2H-phthalazin-1-one] | 0.015
3 | CCN1CCC(c2ccc(Nc3cc(-c4cccc(-n5ncc6cc(C(C)(C)C)cc(F)c6c5=O)c4CO)nn(C)c3=O)nc2)CC1 [I-30, 6-tert-Butyl-2-{3-[5-(1′-ethyl-1′,2′,3′,4′,5′,6′-hexahydro-[3,4]bipyridinyl-6-ylamino)-1-methyl-6-oxo-1,6-dihydro-pyridazin-3-yl]-2-hydroxymethyl-phenyl}-8-fluoro-2H-phthalazin-1-one] | 0.004
4 | Cc1cc(Nc2cc(-c3cccc(-n4ncc5cc(C(C)(C)C)cc(F)c5c4=O)c3CO)nn(C)c2=O)nn1C [I-31, 6-tert-Butyl-2-{3-[5-(1,5-dimethyl-1H-pyrazol-3-ylamino)-1-methyl-6-oxo-1,6-dihydro-pyridazin-3-yl]-2-hydroxymethyl-phenyl}-8-fluoro-2H-phthalazin-1-one] | 0.032
5 | CN1CC[C@@H](c2ccc(Nc3cc(-c4cccc(-n5ncc6cc(C(C)(C)C)cc(F)c6c5=O)c4CO)nn(C)c3=O)nc2)C1 [I-32, 6-tert-Butyl-8-fluoro-2-(2-hydroxymethyl-3-[1-methyl-5-[5-((S)-1-methyl-pyrrolidin-3-yl)-pyridin-2-ylamino]-6-oxo-1,6-dihydro-pyridazin-3-yl]-phenyl)-2H-phthalazin-1-one] | 0.023
6 | CN1CC[C@H](c2ccc(Nc3cc(-c4cccc(-n5ncc6cc(C(C)(C)C)cc(F)c6c5=O)c4CO)nn(C)c3=O)nc2)C1 [I-33, 6-tert-Butyl-8-fluoro-2-(2-hydroxymethyl-3-{1-methyl-5-[5-((R)-1-methyl-pyrrolidin-3-yl)-pyridin-2-ylamino]-6-oxo-1,6-dihydro-pyridazin-3-yl}-phenyl)-2H-phthalazin-1-one] | 0.002
7 | CN1CCN(Cc2ccc(Nc3cc(-c4cccc(-n5ncc6cc(C(C)(C)C)cc(F)c6c5=O)c4CO)nn(C)c3=O)nc2)CC1 [I-41, 6-tert-Butyl-8-fluoro-2-(2-hydroxymethyl-3-{1-methyl-5-[5-(4-methyl-piperazin-1-ylmethyl)-pyridin-2-ylamino]-6-oxo-1,6-dihydro-pyridazin-3-yl}-phenyl)-2H-phthalazin-1-one] | 0.015
8 | COCCN(C)Cc1ccc(Nc2cc(-c3cccc(-n4ncc5cc(C(C)(C)C)cc(F)c5c4=O)c3CO)nn(C)c2=O)nc1 [I-44, 6-tert-Butyl-8-fluoro-2-{2-hydroxymethyl-3-[5-(5-{[(2-methoxy-ethyl)-methyl-amino]-methyl}-pyridin-2-ylamino)-1-methyl-6-oxo-1,6-dihydro-pyridazin-3-yl]-phenyl}-2H-phthalazin-1-one] | 0.014
9 | CN1CCN(c2ccc(Nc3cc(-c4cccc(-n5ncc6cc(C(C)(C)C)cc(F)c6c5=O)c4CO)nn(C)c3=O)nn2)CC1 [I-45, 6-tert-Butyl-8-fluoro-2-(2-hydroxymethyl-3-{1-methyl-5-[6-(4-methyl-piperazin-1-yl)-pyridazin-3-ylamino]-6-oxo-1,6-dihydro-pyridazin-3-yl}-phenyl)-2H-phthalazin-1-one] | 0.027
10 | CN1C[C@@H]2C[C@H]1CN2c1ccc(Nc2cc(-c3cccc(-n4ncc5cc(C(C)(C)C)cc(F)c5c4=O)c3CO)nn(C)c2=O)nn1 [I-46, 6-tert-Butyl-8-fluoro-2-(2-hydroxymethyl-3-{1-methyl-5-[6-((1S,4S)-5-methyl-2,5-diaza-bicyclo[2.2.1]hept-2-yl)-pyridazin-3-ylamino]-6-oxo-1,6-dihydro-pyridazin-3-yl}-phenyl)-2H-phthalazin-1-one] | 0.293
11 | CN(C)CCNC(=O)c1ccc(Nc2cc(-c3cccc(-n4ncc5cc(C(C)(C)C)cc(F)c5c4=O)c3CO)nn(C)c2=O)nc1 [I-51, 6-(6-(3-(6-tert-butyl-8-fluoro-1-oxophthalazin-2(1H)-yl)-2-(hydroxymethyl)phenyl)-2-methyl-3-oxo-2,3-dihydropyridazin-4-ylamino)-N-(2-(dimethylamino)ethyl)nicotinamide] | 0.019
12 | CN(CCO)C(=O)c1ccc(Nc2cc(-c3cccc(-n4ncc5cc(C(C)(C)C)cc(F)c5c4=O)c3CO)nn(C)c2=O)nc1 [I-52, 6-(6-(3-(6-tert-butyl-8-fluoro-1-oxophthalazin-2(1H)-yl)-2-(hydroxymethyl)phenyl)-2-methyl-3-oxo-2,3-dihydropyridazin-4-ylamino)-N-(2-hydroxyethyl)-N-methylnicotinamide] | 0.027

More lines, now with the values ahead:

Row | IC50 [µM] | Compound
13 | 0.076 | Cn1nc(-c2cccc(-n3ncc4cc(C(C)(C)C)cc(F)c4c3=O)c2CO)cc(Nc2ccc(C(=O)N3CCC3)cn2)c1=O [I-47, 2-(3-{5-[5-(Azetidine-1-carbonyl)-pyridin-2-ylamino]-1-methyl-6-oxo-1,6-dihydro-pyridazin-3-yl}-2-hydroxymethyl-phenyl)-6-tert-butyl-8-fluoro-2H-phthalazin-1-one]
14 | 0.185 | Cn1nc(-c2cccc(-n3ncc4cc(C(C)(C)C)cc(F)c4c3=O)c2CO)cc(Nc2ccc(C(=O)N3CCS(=O)(=O)CC3)cn2)c1=O [I-48, 6-tert-Butyl-2-(3-{5-[5-(1,1-dioxo-1λ^6-thiomorpholine-4-carbonyl)-pyridin-2-ylamino]-1-methyl-6-oxo-1,6-dihydro-pyridazin-3-yl}-2-hydroxymethyl-phenyl)-8-fluoro-2H-phthalazin-1-one]
15 | 0.085 | Cn1nc(-c2cccc(-n3ncc4cc(C(C)(C)C)cc(F)c4c3=O)c2CO)cc(Nc2ccc(C(=O)N3CC4(COC4)C3)cn2)c1=O [I-49, 2-(3-(5-(5-(2-oxa-6-azaspiro[3.3]heptane-6-carbonyl)pyridin-2-ylamino)-1-methyl-6-oxo-1,6-dihydropyridazin-3-yl)-2-(hydroxymethyl)phenyl)-6-tert-butyl-8-fluorophthalazin-1(2H)-one]
16 | 0.086 | CN1CC2(C1)CN(C(=O)c1ccc(Nc3cc(-c4cccc(-n5ncc6cc(C(C)(C)C)cc(F)c6c5=O)c4CO)nn(C)c3=O)nc1)C2 [I-50, 6-tert-butyl-8-fluoro-2-(2-(hydroxymethyl)-3-(1-methyl-5-(5-(6-methyl-2,6-diazaspiro[3.3]heptane-2-carbonyl)pyridin-2-ylamino)-6-oxo-1,6-dihydropyridazin-3-yl)phenyl)phthalazin-1(2H)-one]
17 | 0.039 | Cn1nc(-c2cccc(-n3ncc4cc(C(C)(C)C)cc(F)c4c3=O)c2CO)cc(Nc2ccc(C(=O)N3CC(C#N)C3)cn2)c1=O [I-53, 1-(6-(6-(3-(6-tert-butyl-8-fluoro-1-oxophthalazin-2(1H)-yl)-2-(hydroxymethyl)phenyl)-2-methyl-3-oxo-2,3-dihydropyridazin-4-ylamino)nicotinoyl)azetidine-3-carbonitrile]
18 | 0.104 | Cn1nc(-c2cccc(-n3ncc4cc(C(C)(C)C)cc(F)c4c3=O)c2CO)cc(Nc2ccc(C(=O)N3CCC(O)C3)cn2)c1=O (centres unmarked) [I-54, 6-tert-butyl-8-fluoro-2-(2-(hydroxymethyl)-3-(5-(5-(3-hydroxypyrrolidine-1-carbonyl)pyridin-2-ylamino)-1-methyl-6-oxo-1,6-dihydropyridazin-3-yl)phenyl)phthalazin-1(2H)-one]
19 | 0.041 | Cn1nc(-c2cccc(-n3ncc4cc(C(C)(C)C)cc(F)c4c3=O)c2CO)cc(Nc2ccc(C(=O)N3CCC(O)CC3)cn2)c1=O [I-55, 6-tert-butyl-8-fluoro-2-(2-(hydroxymethyl)-3-(5-(5-(4-hydroxypiperidine-1-carbonyl)pyridin-2-ylamino)-1-methyl-6-oxo-1,6-dihydropyridazin-3-yl)phenyl)phthalazin-1(2H)-one]
20 | 0.017 | CN1CCN(c2ccc(Nc3cc(-c4cccc(-n5ncc6cc(C(C)(C)C)cc(F)c6c5=O)c4CO)nn(C)c3=O)nc2)CC1 [I-56, 6-tert-Butyl-8-fluoro-2-(2-hydroxymethyl-3-{1-methyl-5-[5-(4-methyl-piperazin-1-yl)-pyridin-2-ylamino]-6-oxo-1,6-dihydro-pyridazin-3-yl}-phenyl)-2H-phthalazin-1-one]
